Experimental data taken from US5250428A, “L-gulono-gamma-lactone-dehydrogenase for producing vitamin C” (Hoffmann-La Roche Inc., priority 1990, dated 1993).
“And” between values parts separate entries of the source, which are not always exact repeats. Equal values may be shown once.

What was measured:
[1] = system: L-gulono-gamma-lactone dehydrogenase (GLDH); test: Effect of metal ions on GLDH enzyme activity; assay type: biochemical, Gluconobacter oxydans DSM 4025
Description: The enzyme assay was performed at 25° C. by measuring the decrease of absorbance at 600 nm of DCIP spectrophotometrically. One unit of enzyme activity was defined as the amount of enzyme which catalyzed the reduction of 1 μmole of DCIP per minute. […] A reference cuvette contained all components except L-gulono gamma-lactone. The reaction was started by the addition of L-gulono-gamma-lactone. Enzyme activity was measured as the initial reduction rate of DCIP.
Using the same enzyme assay method as described under 1), the effect of various metal ions on the enzyme activity was examined.

[2] = system: L-gulono-gamma-lactone dehydrogenase (GLDH); test: Substrate specificity of GLDH (DCIP reduction enzyme assay); assay type: biochemical, Gluconobacter oxydans DSM 4025; conditions: substrate 400 mM; for Relative activity (%): 25° C., DCIP/PMS, L-gulono-gamma-lactone = 100
Description: (§1) The enzyme assay was performed at 25° C. by measuring the decrease of absorbance at 600 nm of DCIP spectrophotometrically. One unit of enzyme activity was defined as the amount of enzyme which catalyzed the reduction of 1 μmole of DCIP per minute. The extinction coefficient of DCIP at pH 7.0 was taken as 14.5 mM^-1. A cuvette with 1 cm light path contained 0.16 mM DCIP, 1.6 mM phenazine methosulfate, 200 mM potassium phosphate buffer, 400 mM L-gulono-gamma-lactone, enzyme solution and water in a final volume of 0.5 ml. A reference cuvette contained all components except L-gulono gamma-lactone. The reaction was started by the addition of L-gulono-gamma-lactone. Enzyme activity was measured as the initial reduction rate of DCIP.
Substrate specificity of the enzyme was determined using the same enzyme assay method as described as above except that the various substrate solutions (400 mM) were used instead of L-gulono-gamma-lactone.

[3] = system: L-gulono-gamma-lactone dehydrogenase (GLDH); test: Effect of inhibitors on GLDH enzyme activity; assay type: biochemical, Gluconobacter oxydans DSM 4025
Description: as §1
Using the same enzyme assay method as described above, the effect of various inhibitors on the enzyme activity was examined. No compounds tested gave an inhibitory effect on the GLDH.

[4] = system: L-gulono-gamma-lactone dehydrogenase (GLDH); test: Measurement of the Km value (DCIP enzyme assay); assay type: biochemical, Gluconobacter oxydans DSM 4025
Description: as §1
Using the same enzyme assay method as described above, the rate of the oxidizing reaction with varying the concentrations of L-gulono-gamma lactone from 0.18 mM to 90 mM was measured to determine the Km value for L-gulono-gamma-lactone.

[5] = system: L-gulono-gamma-lactone dehydrogenase (GLDH); conditions: conversion of L-gulono-gamma-lactone to L-ascorbic acid

Compound	Relative activity (%) ([1]; metal 0.19 mM)	Relative activity (%) ([1]; metal 0.38 mM)	Relative activity (%) ([1]; metal 0.89 mM)	further results
O.O.O.O.O.O.O.O=S(=O)([O-])[O-].[Ni+2] [NiSO4.7H2 O]	96%	96%	88%	
O=C[C@H](O)[C@@H](O)[C@@H](O)[C@H](O)CO [D-Galactose]				Relative activity (%) [2]: 0%
Fe(SO4)3.xH2 O	104%	92%	76%	
O.O.O.O.O=[N+]([O-])[O-].O=[N+]([O-])[O-].[Ca+2] [Ca(NO3)2.4H2 O]	100%	100%	96%	
O.O.O.O.O.O.O.O=S(=O)([O-])[O-].[Mg+2] [MgSO4.7H2 O]	92%	96%	92%	
O=C1O[C@H](CO)[C@@H](O)[C@H](O)[C@H]1O [D-Glucono-δ-lactone]				Relative activity (%) [2]: 0%
O=C[C@H](O)[C@@H](O)[C@H](O)[C@H](O)C(=O)O [D-Glucuronic acid]				Relative activity (%) [2]: 0%
TiCl	88%	92%	80%	
[Cu+2] [Cu^2+]				inhibition of the enzyme by metal ion [1]: strong inhibition
[F-].[Na+] [Sodium fluoride]				Relative activity (%) ([3]; inhibitor 0.96 mM): 107.1%; Relative activity (%) ([3]; inhibitor 1.89 mM): 114.3%; Relative activity (%) ([3]; inhibitor 4.46 mM): 97.6%
O.O.O.O.[Cl][Mn][Cl] [MnCl2.4H2 O]	100%	0%	0%	
O.O.O.O.O.O=S(=O)([O-])[O-].[Cu+2] [CuSO4.5H2 O]	80%	20%	0%	
O=C[C@@H](O)[C@@H](O)[C@H](O)[C@@H](O)CO [L-Gulose]				Relative activity (%) [2]: 0%
CCN1C(=O)C=CC1=O [N-Ethyl-maleimide]				Relative activity (%) ([3]; inhibitor 0.96 mM): 95.2%; Relative activity (%) ([3]; inhibitor 1.89 mM): 100%; Relative activity (%) ([3]; inhibitor 4.46 mM): 100%
O.O.[Cl][Cu][Cl] [CuCl2.2H2 O]	84%	8%	0%	
O=C(O)CI [Monoiodoacetate]				Relative activity (%) [3]: 104.8% and 100% and 92.9%
O.O.O.O.O.O.[Cl-].[Cl-].[Co+2] [CoCl2.6H2 O]	102%	110%	100%	
O.O.O.O.O.O.O.O=S(=O)([O-])[O-].[Zn+2] [ZnSO4.7H2 O]	88%	88%	76%	
[Cl-].[Cl-].[Zn+2] [ZnCl2]	88%	88%	80%	
O=C1O[C@H]([C@@H](O)CO)[C@@H](O)[C@@H]1O [L-Galactono-r-lactone, L-galactono-gamma-lactone]				activity of GLDH on substrate [2]: does not use L-galactono-gamma-lactone as a substrate; Relative activity (%) [2]: 0%
O=C[C@H](O)[C@@H](O)[C@H](O)[C@H](O)CO [D-Glucose]				activity of GLDH on substrate [2]: weakly active; Relative activity (%) [2]: 23.4%

Compound	Relative activity (%) ([1]; metal 0.19 mM)	Relative activity (%) ([1]; metal 0.38 mM)	Relative activity (%) ([1]; metal 0.89 mM)	further results
[Mn+2] [Mn^2+]				inhibition of the enzyme by metal ion [1]: strong inhibition
NN [Hydrazine monohydrate]				Relative activity (%) ([3]; inhibitor 1.0 mM): 100%
O=C[C@H](O)[C@@H](O)[C@H](O)CO [D-Xylose]				activity of GLDH on substrate [2]: highly active; Relative activity (%) [2]: 110.6%
O=C1O[C@H]([C@@H](O)CO)[C@H](O)[C@@H]1O [L-Gulono-r-lactone, L-gulono-gamma-lactone]				activity of GLDH on substrate [2]: highly active; Relative activity (%) [2]: 100%; Km ([4]; DCIP as the electron acceptor, substrate 0.18 mM to 90 mM, read-out: apparent Michaelis constant (Km)): 34.8 mM; substrate concentration of maximum reaction rate ([4]; substrate varied 0.18 mM to 90 mM): about 71.8 mM
O=C(O)[C@H](O)[C@@H](O)[C@H](O)[C@H](O)CO [D-Gluconic acid]				Relative activity (%) [2]: 0%
O=C(O)c1cc[c]([Hg][Cl])cc1 [PCMB, p-chloro-mercuribenzoate]				Relative activity (%) ([3]; inhibitor 0.96 mM): 90.5%; Relative activity (%) ([3]; inhibitor 1.89 mM): 102.4%; Relative activity (%) ([3]; inhibitor 4.46 mM): 100%
O.O.O.O.O.O.[Cl-].[Cl-].[Mg+2] [MgCl2.6H2 O]	96%	96%	96%	
O=C[C@@H](O)[C@@H](O)[C@H](O)[C@H](O)CO [D-Mannose]				activity of GLDH on substrate [2]: weakly active; Relative activity (%) [2]: 7.23%
O=O [oxygen]				enzyme activity with oxygen as electron acceptor [5]: lack of enzyme catalyzing activity
O=C(O)CN(CCN(CC(=O)O)CC(=O)O)CC(=O)O [EDTA]				Relative activity (%) [3]: 95.2% and 100% and 90.5%
O.O.O.O.O.O.O.O=S(=O)([O-])[O-].[Co+2] [CoSO4.7H2 O]	96%	108%	88%	
O.O.O.O=[N+]([O-])[O-].O=[N+]([O-])[O-].[Cu+2] [Cu(NO3)2.3H2 O]	88%	24%	0%	
O=C[C@H](O)[C@H]1OC(=O)[C@@H](O)[C@H]1O [D-Glucurono-r-lactone]				activity of GLDH on substrate [2]: weakly active; Relative activity (%) [2]: 6.38%
O=S(=O)([O-])[O-].[Cu+2] [CuSO4]	92%	24%	12%	
MnSO4.4-6H2 O	100%	0%	0%	
[Ca+2].[Cl-].[Cl-] [CaCl2]	96%	104%	96%	
Cl.NO [Hydroxylamine hydrocloride]				Relative activity (%) ([3]; inhibitor 1.0 mM): 100%; Relative activity (%) ([3]; inhibitor 2.0 mM): 100%
O.O.[Na+].[Na+].[O]=[Mo](=[O])([O-])[O-] [Na2 MoO4.2H2 O]	104%	96%	88%	
[N-]=[N+]=[N-] [Sodium azide]				Relative activity (%) ([3]; inhibitor 0.96 mM): 100%; Relative activity (%) ([3]; inhibitor 1.89 mM): 97.6%; Relative activity (%) ([3]; inhibitor 4.46 mM): 97.6%
O.O.O.O.O.O.O.O=[As]([O-])([O-])O.[Na+].[Na+] [Na2 HAsO4 7H2 O]				Relative activity (%) ([3]; inhibitor 0.96 mM): 95.2%; Relative activity (%) ([3]; inhibitor 1.89 mM): 104.8%; Relative activity (%) ([3]; inhibitor 4.46 mM): 97.6%
